In US20230028403A1, “METHOD WHICH BRINGS BENEFITS TO HEALTH AND/OR GROWTH OF USEFUL PLANTS” (ISHIHARA SANGYO KAISHA, LTD., priority 2019, published 2023) one finds Above-ground height and Height ratio data, which are given here for one compound.

Holding throughout (type): in vivo
Data set [1] has as its system field corn (variety: SNOWDENT SH2933). The data set is described as follows: Test Example 8: above-ground height of field corn, agricultural field, 500 L/ha. Conditions: 28th day. The method, then: On the 28th day after the foliar application , the above-ground height of the field corn was measured, and the height ratio was calculated in accordance with the following formula.
(§1) Height ratio (%)=(above-ground height in the treated plot)/(above-ground height in the untreated plot)×100

Data set [2] has the same test system. The data set is described as follows: Test Example 6: above-ground height of field corn, pot, 300 L/ha. Conditions: dose 30 g/ha; (c) sodium polyoxyethylene alkyl ether phosphate 0.033 w/v %; 14th day. The method, then:
On the 14th day after the foliar application, the above-ground height of the field corn was measured, and the height ratio was calculated in accordance with the following formula.
Height ratio (%)=(above-ground height in the treated plot)/(above-ground height in the untreated plot) ×100

The test system is the same in data set [3]. The experiment in a line: Test Example 7: above-ground height of field corn, agricultural field, 200 L/ha. Conditions: 27th day. The method, then:
On the 27th day after the foliar application, the above-ground height of the field corn was measured, and the height ratio was calculated in accordance with the following formula.
as §1

Data set [4] relates to field corn (variety: PIONEERDENT 30N34). The experiment in a line: Test Example 5: above-ground height of field corn, agricultural field, 300 L/ha. Conditions: dose 30 g/ha; (c) polyoxyethylene hydrogenated castor oil 0.020 w/v %; 14th day. The protocol:
In an agricultural field having seeds of field corn (variety: PIONEERDENT 30N34, variety highly susceptible to component (a)) sown, when the field corn reached 3.1 to 3.5 leaf stage, an oil-based suspension containing the component (a) and the component (c) (polyoxyethylene hydrogenated castor oil), and a wettable powder containing the component (b) were diluted with water in an amount corresponding to 300 L/ha to prepare spray solutions, which were applied to foliage with a Teejet 80015VS nozzle. The concentration of the component (c) in the spray solution was 0.020 weight/volume percent. On the 14th day after the foliar application, the above-ground height of the field corn was measured, and the height ratio was calculated in accordance with the following formula. The above-ground height in the untreated plot was 76.7 cm.
Height ratio (%) =(above-ground height in the treated plot)/(above-ground height in the untreated plot)×100

For data set [5] the test system is unchanged. The experiment in a line: Test Example 4: above-ground height of field corn, pot, 300 L/ha. Conditions: dose 120 g/ha; (c) polyoxyethylene hydrogenated castor oil 0.08 w/v %; 14th day. The protocol:
Upland field soil was put into a […] hectare pot, and seeds of field corn (variety: PIONEERDENT 30N34, variety highly susceptible to component (a)) were sown. When the field corn reached 3.5 to 4.0 leaf stage, an oil-based suspension containing the component (a) and the component (c) (polyoxyethylene hydrogenated castor oil), and a wettable powder containing the component (b) were diluted with water in an amount corresponding to 300 L/ha to prepare spray solutions. The concentration of the component (c) in the spray solution was 0.08 weight/volume percent. The spray solutions were applied to foliage with a small sprayer. On the 14th day after the foliar application, the above-ground height of the field corn was measured, and the height ratio was calculated in accordance with the following formula. The above-ground height in the untreated plot was 75.8 cm.
as §1

The mark [6] stands for this setting: dose 60 g/ha, (c) sodium polyoxyethylene alkyl ether phosphate 0.04 w/v %.
Where [7] appears, read: dose 90 g/ha, (c) sodium polyoxyethylene alkyl ether phosphate 0.06 w/v %.
Where [8] appears, read: dose 120 g/ha, (c) sodium polyoxyethylene alkyl ether phosphate 0.08 w/v %.
[9] abbreviates: dose 20 g/ha, (c) polyoxyethylene hydrogenated castor oil 0.02 w/v %.
The mark [10] stands for this setting: dose 30 g/ha, (c) polyoxyethylene hydrogenated castor oil 0.03 w/v %.
[11] abbreviates: dose 40 g/ha, (c) polyoxyethylene hydrogenated castor oil 0.04 w/v %.
The mark [12] stands for this setting: dose 60 g/ha, (c) polyoxyethylene hydrogenated castor oil 0.06 w/v %.
Where [13] appears, read: dose 80 g/ha, (c) polyoxyethylene hydrogenated castor oil 0.08 w/v %.
Where [14] appears, read: dose 120 g/ha, (c) polyoxyethylene hydrogenated castor oil 0.12 w/v %.

`COc1cc(OC)nc(NC(=O)NS(=O)(=O)c2ncccc2C(=O)N(C)C)n1` [Component (a), nicosulfuron]: the Above-ground height in data set [1] (setting [6]) came out at 107.2 cm; in data set [1] (setting [7]) it was 88.6 cm; in data set [1] (setting [8]) it was 86.3 cm; in data set [2], 46.8 cm; in data set [3] (setting [9]) it was 125.5 cm; in data set [3] (setting [10]) it was 124.0 cm. For the same compound, the Above-ground height worked out at 129.9 cm in data set [3] (setting [11]); 122.3 cm in data set [3] (setting [12]); 110.7 cm in data set [3] (setting [13]); 107.4 cm in data set [3] (setting [14]); 66.6 cm in data set [4]; 41.3 cm in data set [5]. Also, the Height ratio in data set [1] (setting [6]) was found to be 81%; in data set [1] (setting [7]) it was 67%; in data set [1] (setting [8]), 65%; in data set [2], 75%; in data set [3] (setting [9]) it was 86%; in data set [3] (setting [10]), 84%. The Height ratio came to 88% in data set [3] (setting [11]); 83% in data set [3] (setting [12]); 75% in data set [3] (setting [13]); 73% in data set [3] (setting [14]); 87% in data set [4]; 55% in data set [5].
